Counter-ions that a name gives are not always drawn.
Key:
NLRP3 [1] = molecular target: T1, NLRP3 (Homo sapiens, UniProt Q96P20); test: Human whole blood IL1β release assay (LPS + nigericin, AlphaLisa IL-1β); format: cell-based; set-up: Human whole blood in Li-heparin tubes was obtained from healthy donors from a volunteer donor panel; from tissue; host or cells: human whole blood from healthy donors; settings: NLRP3 inhibitory activity, 1 μg/ml LPS, 10 μM nigericin, IL-1β release, read-out: HWB IC50
How it was run: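 Donor human whole blood (Li-heparin) was primed with 1 μg/mL LPS while incubated with compound (8-point half-log, 10 μM top, 0.1% DMSO) for 3 h at 37° C., then stimulated with 10 μM nigericin for 1 h. Supernatant IL-1β measured by AlphaLISA; IC50 from 4-parameter nonlinear fit.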

[2] = PK protocol, oral administration; format: in vivo, male Sprague Dawley rats; settings: male, Sprague Dawley, plasma, rat, dose (mg/kg); for AUC / CL/F / Cmax / Tmax / half-life: po
Procedure: (§1) Pharmacokinetic parameters were determined in male Sprague Dawley rats (Charles River, UK, 250-350 g; or Vital River Laboratory Animal Technology Co Ltd, Beijing, China, 7-9 weeks old). Animals were individually housed during the study and maintained under a 12 h light/dark cycle. Animals had free access to food and water except that some orally dosed animals were food deprived overnight prior to the study.
(§2) For intravenous administration, compounds were formulated as a solution in water or […] in 2 mL/kg dosing volume and administered via tail vein. For oral administration, compounds were formulated as a solution in water or DMSO:water [10:90] in 5 mL/kg dosing volume and administered orally.
(§3) Serial blood samples (about 120-300 μL) were taken from each animal at each of 8 time-points post dose (0.083, 0.25, 0.5, 1, 2, 4, 8 and 24 h) or at each of 12 time-points post dose (0.03, 0.1, 0.17, 0.25, 0.5, 1, 2, 4, 6, 8, 12 and 24 h) or pre-dose and at each of 9 time-points post dose (0.25, 0.5, 1, 2, 4, 6, 8, 12 and 24 h). Samples were held on ice for no longer than 30 minutes before centrifugation (10,000 rpm (8,385 g) for 3 minutes; or 5,696 rpm (3,0009 for 15 minutes) for plasma generation. Plasma was frozen on dry ice prior to boanalysis. PK parameters were generated from LC-MS/MS data using Dotmatics or Phoenix WinNonlin 6.3 software.

[3] = PK protocol, intravenous administration; format: in vivo, male Sprague Dawley rats; settings: male, Sprague Dawley, rat, plasma, dose (mg/kg); for Vd: read-out: Vdss
Procedure: as §1, §2, §3

NLRP3 [4] = molecular target: T1, NLRP3; test: THP-1 cells pyroptosis assay (LPS + nigericin, resazurin readout); format: cell-based; set-up: Seed THP-1 cells (25,000 cells/well) containing 1.0 μg/ml LPS in 40 μl of RPMI medium; host or cells: THP-1 cells; settings: NLRP3 inhibitory activity, 1.0 μg/ml LPS, 5 μM nigericin
How it was run: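 LPS-primed (1 μg/ml) THP-1 cells, 25,000/well in serum-free RPMI, given compound (8-point half-log, 10 μM top; 0.1% DMSO) for 3 h at 37 °C, then nigericin 5 μM for 1 h. Viability by resazurin (100 μM, 1-2 h), Ex 560/Em 590 nm; IC50 from 4-parameter variable-slope fit.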

T1 sequence (Q96P20 whole entry): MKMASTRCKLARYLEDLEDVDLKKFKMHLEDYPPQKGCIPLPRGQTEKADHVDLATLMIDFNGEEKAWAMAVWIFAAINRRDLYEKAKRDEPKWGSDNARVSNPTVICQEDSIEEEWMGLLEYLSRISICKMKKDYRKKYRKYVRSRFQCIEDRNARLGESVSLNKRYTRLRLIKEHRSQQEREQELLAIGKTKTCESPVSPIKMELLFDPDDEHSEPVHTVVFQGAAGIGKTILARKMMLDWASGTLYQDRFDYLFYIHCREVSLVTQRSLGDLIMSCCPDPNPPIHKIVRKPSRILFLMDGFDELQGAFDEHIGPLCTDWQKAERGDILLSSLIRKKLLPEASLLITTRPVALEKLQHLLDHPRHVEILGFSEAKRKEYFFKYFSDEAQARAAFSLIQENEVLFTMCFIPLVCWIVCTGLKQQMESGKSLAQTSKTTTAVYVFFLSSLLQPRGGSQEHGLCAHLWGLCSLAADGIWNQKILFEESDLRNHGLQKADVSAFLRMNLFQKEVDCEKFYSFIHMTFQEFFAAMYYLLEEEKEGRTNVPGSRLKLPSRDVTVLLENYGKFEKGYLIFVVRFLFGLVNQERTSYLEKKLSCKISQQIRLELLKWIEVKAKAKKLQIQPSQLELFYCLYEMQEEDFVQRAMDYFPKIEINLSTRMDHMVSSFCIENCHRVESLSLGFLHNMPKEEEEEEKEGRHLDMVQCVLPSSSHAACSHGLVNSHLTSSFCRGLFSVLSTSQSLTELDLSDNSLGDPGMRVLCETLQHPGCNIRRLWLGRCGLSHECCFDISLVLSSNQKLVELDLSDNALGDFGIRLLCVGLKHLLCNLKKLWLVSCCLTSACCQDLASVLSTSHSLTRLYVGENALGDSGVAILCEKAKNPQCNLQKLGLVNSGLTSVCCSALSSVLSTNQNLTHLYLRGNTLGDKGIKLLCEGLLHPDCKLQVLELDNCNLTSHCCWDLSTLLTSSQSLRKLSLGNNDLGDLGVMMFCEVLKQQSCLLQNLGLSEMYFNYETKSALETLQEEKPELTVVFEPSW

Row | IC50 (NLRP3 [1]) | bioavailability [2] | AUC [2] | CL/F [2] | Cmax [2] | Tmax [2] | half-life [2] | AUC [3] | clearance [3] | half-life [3] | Vd [3] | IC50 (NLRP3 [4]) | SMILES
1 | < 400 nM | 45.6% | 5650 ng·h/mL | 12.3 mL/min/kg | 2340 ng/mL | 0.5 h | 2.9 h | 4900 ng·h/mL | 5.8 mL/min/kg | 3.2 h | 0.66 L/kg | 40 to 160 nM | CC(c1cc(S(=O)(=O)NC(=O)Nc2c3c(cc4c2CCC4)CCC3)nn1C)N1CCC1 (centres unmarked) [Example 76, 5-(1-(Azetidin-1-yl)ethyl)-N-((1,2,3,5,6,7-hexahydro-s-indacen-4-yl)carbamoyl)-1-methyl-1H-pyrazole-3-sulfonamide]
2 | 800 to 1600 nM | 31.3% | 3310 ng·h/mL | 18 mL/min/kg | 1100 ng/mL | 0.36 h |  | 4230 ng·h/mL | 10.8 mL/min/kg | 3.3 h | 1.71 L/kg | 40 to 160 nM | CC(C)c1cc(Cl)cc(C(C)C)c1NC(=O)NS(=O)(=O)c1cc(CN(C)C)n(C)n1 [Example 93, N-((4-Chloro-2,6-diisopropylphenyl)carbamoyl)-5-((dimethylamino)methyl)-1-methyl-1H-pyrazole-3-sulfonamide, Sodium Salt]
3 | 400 to 800 nM | 84% | 19100 ng·h/mL | 1.8 mL/min/kg | 2410 ng/mL | 1.3 h | 3.3 h | 11400 ng·h/mL | 1.5 mL/min/kg | 3.5 h | 0.39 L/kg | 40 to 160 nM | CNCc1cc(S(=O)(=O)NC(=O)Nc2c3c(cc4c2CCC4)CCC3)nn1C(C)C [Example 50, N-((1,2,3,5,6,7-Hexahydro-s-indacen-4-yl)carbamoyl)-1-isopropyl-5-((methylamino)methyl)-1H-pyrazole-3-sulfonamide]
4 | < 400 nM | 91.6% | 12900 ng·h/mL | 4.1 mL/min/kg | 7180 ng/mL | 0.58 h | 1.5 h | 4700 ng·h/mL | 3.8 mL/min/kg | 1.1 h | 0.27 L/kg | < 40 nM | CN(C)Cc1cc(S(=O)(=O)NC(=O)Nc2c3c(cc4c2CCC4)CCC3)nn1C [Example 94, 5-((Dimethylamino)methyl)-N-((1,2,3,5,6,7-hexahydro-s-indacen-4-yl)carbamoyl)-1-methyl-1H-pyrazole-3-sulfonamide]
5 | 400 to 800 nM | 204% | 21200 ng·h/mL | 2.4 mL/min/kg | 6690 ng/mL | 1 h | 2.2 h | 3480 ng·h/mL | 4.9 mL/min/kg | 1.2 h | 0.36 L/kg | < 40 nM | CN(C)Cc1cc(S(=O)(=O)NC(=O)Nc2c3c(cc4c2CCC4)CCC3)nn1C1CC1 [Example 7, 1-Cyclopropyl-5-((dimethylamino)methyl)-N-((1,2,3,5,6,7-hexahydro-s-indacen-4-yl)carbamoyl)-1H-pyrazole-3-sulfonamide]

Reference: patent US11542255B2, “Sulfonylureas and sulfonylthioureas as NLRP3 inhibitors” (Inflazome Limited, priority 2017, dated 2023)
